In patent publication US20230416307A1, “[…] PEPTIDES FOR ENHANCING VIRAL PRODUCTION” (Synvivia, Inc., priority 2022, published 2023):

Test system: AAV6
Assay: Single-site amino acid substitution scanning of CPs by enrichment score in AAV6
Format: cell-based, adeno-associated virus
Details: FIG. 29, relative to original CP
Excerpt: This plot visually depicts the functional impact of mutations on a particular cyclic peptide as measured by enrichment score. The heatmap provides valuable insights into the mutational landscape of cyclic peptides, highlighting positions where certain amino acid substitutions are either not tolerated (e.g., resulting in depletion), are neutral (e.g., resulting in similar enrichment scores), or are favored (e.g., resulting in higher enrichment, indicating enhanced cyclic peptide variants).
The heatmap is structured with rows indicating the position of the original amino acid, while the columns represent the position of the mutated amino acid (for a given row). The X-axis corresponds to the 20 natural amino acid substitutions for a given cyclic peptide residue index. The Y axis represents the amino acids present in a specific cyclic peptide, starting from the top with the “scar” residue from the peptide cyclization splicing reaction of DNA expressed cyclic peptides. The scar residue is typically amino acids containing a nucleophilic side chain like cysteine, serine, or threonine. Each row is labeled by the native amino acid of a given CP with amino acid positions going from top to bottom (e.g. index 1 is at the top, followed by index 2 followed by, index 3, etc. . . . ). The final amino acid at the bottom cyclizes with the scar residue at top. […]

Substance: Ser2Pro: CSSLT with serine in residue index 2 substituted with proline (CPSLT; cyclic; Cyclic peptide that was found to enhance AAV TU:VG ratio and lentiviral titer.)
- enrichment factor of single-site substitution variant: substantially increased enrichment factors
